According to PubChem BioAssay AID1259407 (Chemical Carcinogenesis Research Information System (CCRIS), 2018):
Calls of active or inactive are those of the source. How the calls were made is not given here.

Test system: CCRIS mutagenicity, Ames/micronucleus/aberration tests
Test: CCRIS mutagenicity studies
[1] = Test System: AMES SALMONELLA TYPHIMURIUM, Strain/Indicator: TA98, Metabolic Activation: NONE, Method: STANDARD PLATE
[2] = Test System: AMES SALMONELLA TYPHIMURIUM, Strain/Indicator: TA100, Metabolic Activation: NONE, Method: STANDARD PLATE
[3] = Test System: AMES SALMONELLA TYPHIMURIUM, Strain/Indicator: TA100, Metabolic Activation: RAT, LIVER, S-9, AROCLOR 1254, Method: STANDARD PLATE

Measured: mutagenic call

CC(C)(c1ccc(OCC(O)CO)cc1)c1ccc(OCC(O)CO)cc1 (stereo not drawn)
inactive: [1] inactive; negative | Test System: AMES SALMONELLA TYPHIMURIUM, Strain/Indicator: TA98, Metabolic Activation: RAT LIVER S-9, PHENOBARBITAL/METHYLCHOLANTHRENE (4%), Method: STANDARD PLATE inactive; negative | [2] inactive; negative | Test System: AMES SALMONELLA TYPHIMURIUM, Strain/Indicator: TA100, Metabolic Activation: RAT LIVER S-9, PHENOBARBITAL/METHYLCHOLANTHRENE (4%), Method: STANDARD PLATE inactive; negative | Test System: AMES SALMONELLA TYPHIMURIUM, Strain/Indicator: TA1535, Metabolic Activation: NONE, Method: STANDARD PLATE inactive; negative | Test System: AMES SALMONELLA TYPHIMURIUM, Strain/Indicator: TA1535, Metabolic Activation: RAT LIVER S-9, PHENOBARBITAL/METHYLCHOLANTHRENE (10%), Method: STANDARD PLATE inactive; negative | Test System: AMES SALMONELLA TYPHIMURIUM, Strain/Indicator: TA1537, Metabolic Activation: NONE, Method: STANDARD PLATE inactive; negative | Test System: AMES SALMONELLA TYPHIMURIUM, Strain/Indicator: TA1737, Metabolic Activation: RAT LIVER S-9, PHENOBARBITAL/METHYLCHOLANTHRENE (10%), Method: STANDARD PLATE inactive; negative

c1ccc2c(c1)ccc1ccccc12
active: Test System: AMES SALMONELLA TYPHIMURIUM, Strain/Indicator: TA97, Metabolic Activation: RAT, LIVER, S-9, PCB, Method: STANDARD PLATE active; positive | [3] active; positive | Test System: AMES SALMONELLA TYPHIMURIUM, Strain/Indicator: TA1535, Metabolic Activation: RAT, LIVER, S-9, AROCLOR 1254, Method: STANDARD PLATE active; positive
inactive: Test System: AMES SALMONELLA TYPHIMURIUM, Strain/Indicator: TA97, Metabolic Activation: HAMSTER, LIVER, S-9, AROCLOR 1254 (10%), Method: PREINCUBATION inactive; negative | Test System: AMES SALMONELLA TYPHIMURIUM, Strain/Indicator: TA97, Metabolic Activation: NONE, Method: PREINCUBATION inactive; negative | Test System: AMES SALMONELLA TYPHIMURIUM, Strain/Indicator: TA97, Metabolic Activation: NONE, Method: STANDARD PLATE inactive; negative | Test System: AMES SALMONELLA TYPHIMURIUM, Strain/Indicator: TA97, Metabolic Activation: RAT, LIVER, S-9, AROCLOR 1254 (10%), Method: PREINCUBATION inactive; negative | Test System: AMES SALMONELLA TYPHIMURIUM, Strain/Indicator: TA98, Metabolic Activation: HAMSTER, LIVER, S-9, AROCLOR 1254 (10%), Method: PREINCUBATION inactive; negative | Test System: AMES SALMONELLA TYPHIMURIUM, Strain/Indicator: TA98, Metabolic Activation: NONE, Method: PREINCUBATION inactive; negative | [1] inactive; negative | Test System: AMES SALMONELLA TYPHIMURIUM, Strain/Indicator: TA98, Metabolic Activation: RAT, LIVER, S-9, AROCLOR 1254 (10%), Method: PREINCUBATION inactive; negative | Test System: AMES SALMONELLA TYPHIMURIUM, Strain/Indicator: TA98, Metabolic Activation: RAT, LIVER, S-9, AROCLOR 1254, Method: STANDARD PLATE inactive; negative | Test System: AMES SALMONELLA TYPHIMURIUM, Strain/Indicator: TA98, Metabolic Activation: RAT, LIVER, S-9, PCB, Method: STANDARD PLATE inactive; negative | Test System: AMES SALMONELLA TYPHIMURIUM, Strain/Indicator: TA100, Metabolic Activation: HAMSTER, LIVER, S-9, AROCLOR 1254 (5 OR 30%), Method: PREINCUBATION inactive; negative | Test System: AMES SALMONELLA TYPHIMURIUM, Strain/Indicator: TA100, Metabolic Activation: HAMSTER, LIVER, S-9, AROCLOR 1254 (10%), Method: PREINCUBATION inactive; negative | Test System: AMES SALMONELLA TYPHIMURIUM, Strain/Indicator: TA100, Metabolic Activation: NONE, Method: PREINCUBATION inactive; negative | [2] inactive; negative | Test System: AMES SALMONELLA TYPHIMURIUM, Strain/Indicator: TA100, Metabolic Activation: RAT, LIVER, S-9, AROCLOR 1254 (5%), Method: PREINCUBATION inactive; negative | Test System: AMES SALMONELLA TYPHIMURIUM, Strain/Indicator: TA100, Metabolic Activation: RAT, LIVER, S-9, AROCLOR 1254 (10%), Method: PREINCUBATION inactive; negative | Test System: AMES SALMONELLA TYPHIMURIUM, Strain/Indicator: TA100, Metabolic Activation: RAT, LIVER, S-9, PCB, Method: STANDARD PLATE inactive; negative | Test System: AMES SALMONELLA TYPHIMURIUM, Strain/Indicator: TA1535, Metabolic Activation: HAMSTER, LIVER, S-9, AROCLOR 1254 (10%), Method: PREINCUBATION inactive; negative | Test System: AMES SALMONELLA TYPHIMURIUM, Strain/Indicator: TA1535, Metabolic Activation: NONE, Method: PREINCUBATION inactive; negative | Test System: AMES SALMONELLA TYPHIMURIUM, Strain/Indicator: TA1535, Metabolic Activation: RAT, LIVER, S-9, AROCLOR 1254 (10%), Method: PREINCUBATION inactive; negative | Test System: E. COLI, Strain/Indicator: WP2 UVRA, Metabolic Activation: HAMSTER, LIVER, S-9, AROCLOR 1254, Method: STANDARD PLATE inactive; negative | Test System: E. COLI, Strain/Indicator: WP2 UVRA, Metabolic Activation: HAMSTER, LIVER, S-9, Method: STANDARD PLATE inactive; negative | Test System: E. COLI, Strain/Indicator: WP2 UVRA, Metabolic Activation: MOUSE, LIVER, S-9, AROCLOR 1254, Method: STANDARD PLATE inactive; negative | Test System: E. COLI, Strain/Indicator: WP2 UVRA, Metabolic Activation: MOUSE, LIVER, S-9, Method: STANDARD PLATE inactive; negative | Test System: E. COLI, Strain/Indicator: WP2 UVRA, Metabolic Activation: NONE, Method: STANDARD PLATE inactive; negative | Test System: E. COLI, Strain/Indicator: WP2 UVRA, Metabolic Activation: RAT, LIVER, S-9, AROCLOR 1254, Method: STANDARD PLATE inactive; negative | Test System: E. COLI, Strain/Indicator: WP2 UVRA, Metabolic Activation: RAT, LIVER, S-9, Method: STANDARD PLATE inactive; negative | Test System: UDS RAT HEPATOCYTES, Strain/Indicator: BROMODEOXYURIDINE INCORP, Metabolic Activation: NONE, Method: FLOW CYTOMETRIC ANALYSIS inactive; negative

CC12C=CC(C1)C1C(=O)OC(=O)C12 (stereo not drawn)
inactive: Test System: Ames Salmonella typhimurium, Strain/Indicator: TA98, Metabolic Activation: None, Method: Preincubation inactive; negative | Test System: Ames Salmonella typhimurium, Strain/Indicator: TA98, Metabolic Activation: Rat, Liver, S-9, Phenobarbital and 5,6-benzoflavone, Method: Preincubation inactive; negative | Test System: Ames Salmonella typhimurium, Strain/Indicator: TA100, Metabolic Activation: None, Method: Preincubation inactive; negative | Test System: Ames Salmonella typhimurium, Strain/Indicator: TA100, Metabolic Activation: Rat, Liver, S-9, Phenobarbital and 5,6-benzoflavone, Method: Preincubation inactive; negative | Test System: Ames Salmonella typhimurium, Strain/Indicator: TA1535, Metabolic Activation: None, Method: Preincubation inactive; negative | Test System: Ames Salmonella typhimurium, Strain/Indicator: TA1535, Metabolic Activation: Rat, Liver, S-9, Phenobarbital and 5,6-benzoflavone, Method: Preincubation inactive; negative | Test System: Ames Salmonella typhimurium, Strain/Indicator: TA1537, Metabolic Activation: None, Method: Preincubation inactive; negative | Test System: Ames Salmonella typhimurium, Strain/Indicator: TA1537, Metabolic Activation: Rat, Liver, S-9, Phenobarbital and 5,6-benzoflavone, Method: Preincubation inactive; negative | Test System: E. coli, Strain/Indicator: WP2uvrA/pKM101, Metabolic Activation: None, Method: Preincubation inactive; negative | Test System: E. coli, Strain/Indicator: WP2uvrA/pKM101, Metabolic Activation: Rat, Liver, S-9, Phenobarbital and 5,6-benzoflavone, Method: Preincubation inactive; negative

Cl/C=C(\Cl)COCCCl
inactive: Test System: AMES SALMONELLA TYPHIMURIUM, Strain/Indicator: TA100, Metabolic Activation: RAT, LIVER, S-9, 3-METHYLCHOLANTHRENE, Method: STANDARD PLATE inactive; negative | Test System: AMES SALMONELLA TYPHIMURIUM, Strain/Indicator: TA100, Metabolic Activation: RAT, LIVER, S-9, Method: STANDARD PLATE inactive; negative
active: [3] active; positive | Test System: AMES SALMONELLA TYPHIMURIUM, Strain/Indicator: TA100, Metabolic Activation: RAT, LIVER, S-9, PHENOBARBITAL, Method: STANDARD PLATE active; positive
